# Test results as given in PMC7558026, “Exploring and applying the substrate promiscuity of a C-glycosyltransferase in the chemo-enzymatic synthesis of bioactive C-glycosides” (Nature Communications, 2020).
# Values joined by “and” are separate entries in the source; they are usually repeats but may differ in a detail not shown here. Identical values can stand only once.
# T1: AbCGT V183E (Aloe vera, UniProt A0A7G9P699, V183E)
# T1 sequence (A0A7G9P699 1-470 V183E): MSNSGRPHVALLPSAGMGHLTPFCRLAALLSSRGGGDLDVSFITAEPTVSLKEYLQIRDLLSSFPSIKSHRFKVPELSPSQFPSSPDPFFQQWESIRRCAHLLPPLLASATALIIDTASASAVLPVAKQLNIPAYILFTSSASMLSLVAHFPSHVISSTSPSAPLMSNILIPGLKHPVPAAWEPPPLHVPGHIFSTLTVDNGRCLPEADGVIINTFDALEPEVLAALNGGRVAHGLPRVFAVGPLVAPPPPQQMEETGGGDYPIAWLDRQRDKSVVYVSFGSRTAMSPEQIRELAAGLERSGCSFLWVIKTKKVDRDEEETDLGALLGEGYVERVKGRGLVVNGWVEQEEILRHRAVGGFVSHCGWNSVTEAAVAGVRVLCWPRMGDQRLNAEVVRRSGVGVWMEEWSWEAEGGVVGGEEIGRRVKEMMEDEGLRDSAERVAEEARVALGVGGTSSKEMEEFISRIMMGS
# T2: AbCGT V183D (Aloe vera, UniProt A0A7G9P699, V183D)
# T2 sequence (A0A7G9P699 1-470 V183D): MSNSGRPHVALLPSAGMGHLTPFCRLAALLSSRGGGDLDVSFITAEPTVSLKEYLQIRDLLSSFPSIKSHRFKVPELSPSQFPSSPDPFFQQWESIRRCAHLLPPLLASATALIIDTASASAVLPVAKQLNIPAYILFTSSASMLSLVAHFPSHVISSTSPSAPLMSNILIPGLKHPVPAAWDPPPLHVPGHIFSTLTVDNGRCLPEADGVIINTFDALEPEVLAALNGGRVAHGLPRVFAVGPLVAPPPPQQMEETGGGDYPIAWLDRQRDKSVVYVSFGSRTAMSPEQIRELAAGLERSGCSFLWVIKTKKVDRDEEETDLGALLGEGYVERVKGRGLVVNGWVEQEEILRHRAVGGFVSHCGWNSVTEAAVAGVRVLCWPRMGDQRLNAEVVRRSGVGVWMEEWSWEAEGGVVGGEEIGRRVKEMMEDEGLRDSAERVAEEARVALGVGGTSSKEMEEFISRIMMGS
# Tests used:
# Type in all cases: biochemical, Aloe barbadensis
# AbCGT V183C = experiment: Glycosyltransferase activity of AbCGT variant V183C; conditions: pH 7.4, 30 °C, 12 h, Reaction-1 to -3
# Experimental: (§1) The reaction mixture contained 0.5 mM sugar donors (1.0 mM for di-glycosylation), 0.25 mM aglycons, 50 mM Tris-HCl (pH 7.4), and 50‒100 μg of purified AbCGT in a final volume of 100 μL. Due to the instability of some acceptors in the buffer of pH 11.0, the reactions were performed under the physiological conditions (pH 7.4, 30 °C) to compare the catalytic activities of AbGT27 with different substrates under the same conditions. The reactions were performed at 30 °C for up to 12 h and terminated by the addition of 200 μL of ice-cold methanol. Subsequently, samples were centrifuged at 15,000 × g for 30 min to collect the supernatant, and aliquots were analyzed by HPLC-UV/ESIMS. HPLC analysis was performed on a Shiseido CAPCELL PAK C18 MG III column (250 mm × 4.6 mm I.D., 5 μm, Shiseido Co., Ltd., Japan) at a flow rate of 1 mL min^‒1. The mobile phase was a gradient elution of solvents A (0.1% formic acid aqueous solution) and B (methanol). The gradient programs were used for the analysis of the reactions (Supplementary Table 6). The conversion rates of the enzyme reactions were calculated from peak areas of glycosylated products and substrates as analyzed by HPLC. To facilitate inferential statistical analysis, three parallel assays were routinely performed; the means ± SD from triplicate analyses are reported here. […]
# AbCGT V183E = molecular target: T1, AbCGT V183E; experiment: Glycosyltransferase activity of AbCGT variant V183E
# Experimental: The reaction mixture contained 0.5 mM sugar donors (1.0 mM for di-glycosylation), 0.25 mM aglycons, 50 mM Tris-HCl (pH 7.4), and 50‒100 μg of purified AbCGT in a final volume of 100 μL. Due to the instability of some acceptors in the buffer of pH 11.0, the reactions were performed under the physiological conditions (pH 7.4, 30 °C) to compare the catalytic activities of AbGT27 with different substrates under the same conditions. The reactions were performed at 30 °C for up to 12 h and terminated by the addition of 200 μL of ice-cold methanol. Subsequently, samples were centrifuged at 15,000 × g for 30 min to collect the supernatant, and aliquots were analyzed by HPLC-UV/ESIMS. HPLC analysis was performed on a Shiseido CAPCELL PAK C18 MG III column (250 mm × 4.6 mm I.D., 5 μm, Shiseido Co., Ltd., Japan) at a flow rate of 1 mL min^‒1. The mobile phase was a gradient elution of solvents A (0.1% formic acid aqueous solution) and B (methanol). The gradient programs were used for the analysis of the reactions (Supplementary Table 6). The conversion rates of the enzyme reactions were calculated from peak areas of glycosylated products and substrates as analyzed by HPLC. To facilitate inferential statistical analysis, three parallel assays were routinely performed; the means ± SD from triplicate analyses are reported here.
# Site-saturation mutagenesis of AbCGT at residue 183 was performed by PCR using pET28a-AbCGT as a template and the corresponding degenerate primers, which are listed in Supplementary Table 5. PCR products were purified and transformed into Trans1-T1 (DE3) E. coli. The sequences of pET28a-AbCGT mutants were confirmed by sequencing, and transformed into Transetta (DE3) E. coli for heterologous expression following protein purification.
# AbCGT V183L = experiment: Glycosyltransferase activity of AbCGT variant V183L; conditions: pH 7.4, 30 °C, 12 h, Reaction-1 to -3
# Experimental: as §1
# AbCGT V183N = experiment: Glycosyltransferase activity of AbCGT variant V183N; conditions: pH 7.4, 30 °C, 12 h, Reaction-1 to -3
# Experimental: as §1
# AbCGT [1] = molecular target: T3, AbCGT (Aloe vera, UniProt A0A7G9P699); experiment: Glycosyltransferase activity assay, purified AbCGT (wild type) with aglycon acceptors and UDP-Glc
# AbCGT V183M = experiment: Glycosyltransferase activity of AbCGT variant V183M; conditions: pH 7.4, 30 °C, 12 h, Reaction-1 to -3
# Experimental: as §1
# AbCGT [2] = molecular target: T3, AbCGT; experiment: Glycosyltransferase activity assay, purified AbCGT (wild type) with aglycon acceptors and UDP-Glc; conditions: pH 7.4, 30 °C, 12 h, Reaction-1 to -3
# AbCGT V183D = molecular target: T2, AbCGT V183D; experiment: Glycosyltransferase activity of AbCGT variant V183D
# Method in brief: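 Each purified AbCGT residue-183 mutant (50‒100 μg) was incubated with 0.25 mM aglycon and 0.5 mM sugar donor (1.0 mM for di-glycosylation) in 50 mM Tris-HCl pH 7.4 at 30 °C for up to 12 h. The reaction was quenched with cold methanol, and conversion rate was taken from HPLC peak areas of product versus substrate; triplicate means ± SD.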
# AbCGT V183R = experiment: Glycosyltransferase activity of AbCGT variant V183R; conditions: pH 7.4, 30 °C, 12 h, Reaction-1 to -3
# Experimental: as §1
# AbCGT V183Q = experiment: Glycosyltransferase activity of AbCGT variant V183Q; conditions: pH 7.4, 30 °C, 12 h, Reaction-1 to -3
# Experimental: as §1
# [3] = substrate: O=C1C[C@@](O)(c2ccc(O)cc2)Oc2cc(O)cc(O)c21; experiment: Kinetic parameters of AbCGT (wild type); conditions: other: acceptor varied, UDP-Glc as donor, pH 7.4, 30 °C
# Experimental: (§2) The reactions terminated by the addition of 200 μL of ice-cold methanol. Subsequently, samples were centrifuged at 15,000 × g for 30 min to collect the supernatant, and aliquots were analyzed by HPLC as described above. All experiments were performed in triplicate. The value of Km was calculated with the method of Lineweaver–Burk plot.
# [4] = substrate: O=C(CCc1ccc(O)cc1)c1c(O)cc(O)cc1O; experiment: Kinetic parameters of AbCGT (wild type); conditions: other: acceptor varied, UDP-Glc as donor, pH 7.4, 30 °C
# Experimental: as §2
# [5] = substrate: CC(=O)c1c(O)cc(O)cc1O; experiment: Kinetic parameters of AbCGT (wild type); conditions: other: acceptor varied, UDP-Glc as donor, pH 7.4, 30 °C
# Experimental: as §2
# [6] = V183E, pH 7.4, 30 °C, 12 h, Reaction-1 to -3
# [7] = aglycon acceptor with UDP-Glc, pH 7.4, 30 °C, up to 12 h, Reaction-1 to -3
# [8] = V183D, pH 7.4, 30 °C, 12 h, Reaction-1 to -3
molecule,measurement,setting,value
"O=C1CC(O)(c2ccc(O)cc2)Oc2cc(O)cc(O)c21 (centres unmarked) [Compound 23, 2-hydroxynaringenin]","conversion rates of 2-hydroxynaringenin, C-glycosylation",AbCGT V183C,85.3% and 83.5%
same,"conversion rates of 2-hydroxynaringenin, O-glycosylation",AbCGT V183C,14.7% and 16.5%
same,"conversion rates of 2-hydroxynaringenin, C-glycosylation",AbCGT V183E; [6],99.8% and 99.6%
same,"conversion rates of 2-hydroxynaringenin, O-glycosylation",AbCGT V183E; [6],0.2% and 0.4%
same,V183E/yield of O-glycoside(%),AbCGT V183E; reaction-1,0% and 0.5%
same,V183E/yield of O-glycoside(%),AbCGT V183E; reaction-2,0% and 0.3%
same,V183E/yield of O-glycoside(%),AbCGT V183E; reaction-3,0% and 0.8%
same,"conversion rates of 2-hydroxynaringenin, C-glycosylation",AbCGT V183L,83% and 80% and 76.5%
same,"conversion rates of 2-hydroxynaringenin, O-glycosylation",AbCGT V183L,17% and 20% and 23.5%
same,"conversion rates of 2-hydroxynaringenin, C-glycosylation",AbCGT V183N,95.8% and 95.1% and 94.3%
same,"conversion rates of 2-hydroxynaringenin, O-glycosylation",AbCGT V183N,4.2% and 4.9% and 5.7%
same,"conversion rates, O,N,S-glycosylation",AbCGT [1]; [7],16.7% and 14.4% and 17.2%
same,"conversion rates, di-C-glycosylation",AbCGT [1]; [7],0%
same,"conversion rates, mono-C-glycosylation",AbCGT [1]; [7],83.3% and 85.6% and 82.8%
same,WT/yield of C-glycoside(%),AbCGT [1]; reaction-1,82%
same,WT/yield of O-glycoside(%),AbCGT [1]; reaction-1,18.7%
same,WT/yield of C-glycoside(%),AbCGT [1]; reaction-2,84.9%
same,WT/yield of O-glycoside(%),AbCGT [1]; reaction-2,16.2%
same,WT/yield of C-glycoside(%),AbCGT [1]; reaction-3,83.2%
same,WT/yield of O-glycoside(%),AbCGT [1]; reaction-3,17.8%
same,"conversion rates of 2-hydroxynaringenin, C-glycosylation",AbCGT V183M,80.2% and 82.7% and 79.5%
same,"conversion rates of 2-hydroxynaringenin, O-glycosylation",AbCGT V183M,19.8% and 17.3% and 20.5%
same,"conversion rates of 2-hydroxynaringenin, C-glycosylation",AbCGT [2],85.9% and 83.4% and 85%
same,"conversion rates of 2-hydroxynaringenin, O-glycosylation",AbCGT [2],14.1% and 16.6% and 15%
same,"conversion rates of 2-hydroxynaringenin, C-glycosylation",AbCGT V183D; [8],99.7% and 99.5%
same,"conversion rates of 2-hydroxynaringenin, O-glycosylation",AbCGT V183D; [8],0.3% and 0.5%
same,V183D/yield of C-glycoside(%),AbCGT V183D; reaction-1,99.3%
same,V183D/yield of O-glycoside(%),AbCGT V183D; reaction-1,0.7%
same,V183D/yield of C-glycoside(%),AbCGT V183D; reaction-2,99.5%
same,V183D/yield of O-glycoside(%),AbCGT V183D; reaction-2,0.5%
same,V183D/yield of C-glycoside(%),AbCGT V183D; reaction-3,99.2%
same,V183D/yield of O-glycoside(%),AbCGT V183D; reaction-3,0.8%
same,"conversion rates of 2-hydroxynaringenin, C-glycosylation",AbCGT V183R,64.9% and 75.1% and 70.5%
same,"conversion rates of 2-hydroxynaringenin, O-glycosylation",AbCGT V183R,3.4% and 2.7% and 2.9%
same,"conversion rates of 2-hydroxynaringenin, C-glycosylation",AbCGT V183Q,88.9% and 88.2%
same,"conversion rates of 2-hydroxynaringenin, O-glycosylation",AbCGT V183Q,11.1% and 11.8%
AbCGT (Aloe vera) (protein) MSNSGRPHVALLPSAGMGHLTPFCRLAALLSSRGGGDLDVSFITAEPTVSLKEYLQIRDLLSSFPSIKSHRFKVPELSPSQFPSSPDPFFQQWESIRRCAHLLPPLLASATALIIDTASASAVLPVAKQLNIPAYILFTSSASMLSLVAHFPSHVISSTSPSAPLMSNILIPGLKHPVPAAWVPPPLHVPGHIFSTLTVDNGRCLPEADGVIINTFDALEPEVLAALNGGRVAHGLPRVFAVGPLVAPPPPQQMEETGGGDYPIAWLDRQRDKSVVYVSFGSRTAMSPEQIRELAAGLERSGCSFLWVIKTKKVDRDEEETDLGALLGEGYVERVKGRGLVVNGWVEQEEILRHRAVGGFVSHCGWNSVTEAAVAGVRVLCWPRMGDQRLNAEVVRRSGVGVWMEEWSWEAEGGVVGGEEIGRRVKEMMEDEGLRDSAERVAEEARVALGVGGTSSKEMEEFISRIMMGS,Km,[3],414.5 ± 23.7 µM
same,Km,[4],146.0 ± 10.2 µM
same,kcat,[4],120 ± 8.3 min⁻¹
same,Km,[5],176.2 ± 11.7 µM
same,kcat,[5],144 ± 9.1 min⁻¹
